Literature values in patent US8778892B2, “Compounds and methods for treatment of solid tumors” (B & G Partners, LLC, priority 2008, dated 2014).

Target: CD44 (Homo sapiens, UniProt P16070)
Details: intact cells

Sequence of CD44 (P16070 21-742, species assumed): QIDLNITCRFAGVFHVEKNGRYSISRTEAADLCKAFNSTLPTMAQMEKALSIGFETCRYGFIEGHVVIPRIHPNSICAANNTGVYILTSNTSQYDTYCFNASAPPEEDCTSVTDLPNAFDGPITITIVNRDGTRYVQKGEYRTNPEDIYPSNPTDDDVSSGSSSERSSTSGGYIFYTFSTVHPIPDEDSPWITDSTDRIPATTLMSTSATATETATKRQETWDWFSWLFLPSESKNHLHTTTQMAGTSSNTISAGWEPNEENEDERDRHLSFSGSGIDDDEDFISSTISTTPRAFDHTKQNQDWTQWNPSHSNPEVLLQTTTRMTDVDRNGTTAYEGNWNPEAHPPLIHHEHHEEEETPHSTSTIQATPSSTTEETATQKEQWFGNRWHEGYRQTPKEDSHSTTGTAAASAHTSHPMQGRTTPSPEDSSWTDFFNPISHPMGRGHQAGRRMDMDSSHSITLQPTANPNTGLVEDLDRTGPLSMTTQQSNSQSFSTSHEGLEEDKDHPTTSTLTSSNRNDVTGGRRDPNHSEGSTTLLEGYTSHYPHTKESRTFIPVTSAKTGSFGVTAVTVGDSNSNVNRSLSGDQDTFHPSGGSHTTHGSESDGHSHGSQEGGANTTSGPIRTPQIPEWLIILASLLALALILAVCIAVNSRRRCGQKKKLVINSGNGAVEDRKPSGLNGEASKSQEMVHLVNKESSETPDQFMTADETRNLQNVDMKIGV

capacity to compete with hyaluronan for binding	Substance
little capacity to compete	chondroitin sulfate
little capacity to compete	heparan sulfate
